For data set [1], the target named is T1, BTK (Homo sapiens, UniProt Q06187). Kind of data set: Cellular durability.
The target in data set [2] is T1, BTK. Kind of data set: Dissociation of compound from BTK after guanidine-mediated unfolding. Conditions: relative to samples without BTK.
A further data set deals with EGFR (Homo sapiens, UniProt P00533). Kind of data set: Enzymatic IC50 assay. The data set is classed as biochemical.
For a further data set, the target named is T2, ITK (Homo sapiens, UniProt Q08881).
T2 sequence (Q08881 1-620): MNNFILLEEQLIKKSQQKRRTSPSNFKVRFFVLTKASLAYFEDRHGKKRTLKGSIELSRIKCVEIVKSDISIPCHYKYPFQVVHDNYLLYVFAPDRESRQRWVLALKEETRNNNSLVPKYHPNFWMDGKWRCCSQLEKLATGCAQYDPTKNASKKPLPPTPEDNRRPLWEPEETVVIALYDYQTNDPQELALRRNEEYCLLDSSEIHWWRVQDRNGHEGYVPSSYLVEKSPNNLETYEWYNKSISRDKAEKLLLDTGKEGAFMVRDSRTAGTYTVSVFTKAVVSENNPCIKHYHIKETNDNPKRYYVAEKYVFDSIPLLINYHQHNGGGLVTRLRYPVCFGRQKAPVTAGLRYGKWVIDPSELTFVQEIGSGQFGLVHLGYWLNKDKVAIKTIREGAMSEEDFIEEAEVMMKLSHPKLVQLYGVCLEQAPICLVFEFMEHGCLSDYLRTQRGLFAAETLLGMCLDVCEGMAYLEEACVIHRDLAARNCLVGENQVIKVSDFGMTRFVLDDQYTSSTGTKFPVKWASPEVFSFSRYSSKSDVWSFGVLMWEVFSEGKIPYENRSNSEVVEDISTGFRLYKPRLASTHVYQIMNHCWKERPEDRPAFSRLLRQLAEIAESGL
Put plainly: Enzymatic IC50 assay. The data set is classed as biochemical.

The next data set addresses T3, JAK3 (Homo sapiens, UniProt P52333).
T3 sequence (P52333 1-1124): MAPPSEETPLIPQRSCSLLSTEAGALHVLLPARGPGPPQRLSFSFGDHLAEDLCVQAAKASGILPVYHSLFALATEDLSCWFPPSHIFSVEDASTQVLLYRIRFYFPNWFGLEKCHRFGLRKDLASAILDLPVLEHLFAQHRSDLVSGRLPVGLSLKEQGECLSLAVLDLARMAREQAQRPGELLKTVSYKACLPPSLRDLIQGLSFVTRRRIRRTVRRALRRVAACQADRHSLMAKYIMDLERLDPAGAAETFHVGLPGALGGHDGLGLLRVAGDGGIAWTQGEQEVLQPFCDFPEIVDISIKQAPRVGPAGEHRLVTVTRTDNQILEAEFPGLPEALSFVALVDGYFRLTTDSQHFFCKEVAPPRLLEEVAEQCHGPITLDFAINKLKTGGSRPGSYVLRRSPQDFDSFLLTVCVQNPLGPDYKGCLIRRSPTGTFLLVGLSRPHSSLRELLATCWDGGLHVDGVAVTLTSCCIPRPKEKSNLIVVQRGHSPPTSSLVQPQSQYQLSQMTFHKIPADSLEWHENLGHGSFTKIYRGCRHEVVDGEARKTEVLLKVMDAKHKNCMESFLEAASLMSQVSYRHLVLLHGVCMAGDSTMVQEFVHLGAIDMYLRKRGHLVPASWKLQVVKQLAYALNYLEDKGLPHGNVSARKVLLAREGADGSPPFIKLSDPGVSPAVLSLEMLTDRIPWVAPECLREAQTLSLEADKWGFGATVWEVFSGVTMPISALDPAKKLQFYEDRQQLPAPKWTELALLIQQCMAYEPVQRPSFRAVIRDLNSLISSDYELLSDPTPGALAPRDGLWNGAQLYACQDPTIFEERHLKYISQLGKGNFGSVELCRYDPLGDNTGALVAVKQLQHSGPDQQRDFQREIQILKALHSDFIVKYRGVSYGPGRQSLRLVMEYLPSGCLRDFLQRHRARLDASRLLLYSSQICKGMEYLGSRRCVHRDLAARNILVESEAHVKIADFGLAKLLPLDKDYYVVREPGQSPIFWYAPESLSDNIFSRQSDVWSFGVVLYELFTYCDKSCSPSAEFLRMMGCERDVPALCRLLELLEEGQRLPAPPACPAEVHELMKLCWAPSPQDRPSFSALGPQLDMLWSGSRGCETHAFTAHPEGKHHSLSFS
Put plainly: Enzymatic IC50 assay. The class given is biochemical.

A further data set in a line: Aqueous solubility. The class given is physicochemical.
The next data set can be described thus: Oral bioavailability. Conditions: in vivo.
In data set [3] the target is T1, BTK. Put plainly: Biochemical residence time using fluorescence competition. The class given is binding. To be noted: for residence time: read-out: BTK residence time τ.
The target in data set [4] is T1, BTK. Kind of data set: BTK cell occupancy using Alphascreen. The class given is cell-based. Background: Bead proximity is the source of the signal in Alpha formats.

The record followed here is article PMC4472506 (Nature chemical biology, 2015).

Bounds are passed on as bounds.

T1 sequence (Q06187 whole entry): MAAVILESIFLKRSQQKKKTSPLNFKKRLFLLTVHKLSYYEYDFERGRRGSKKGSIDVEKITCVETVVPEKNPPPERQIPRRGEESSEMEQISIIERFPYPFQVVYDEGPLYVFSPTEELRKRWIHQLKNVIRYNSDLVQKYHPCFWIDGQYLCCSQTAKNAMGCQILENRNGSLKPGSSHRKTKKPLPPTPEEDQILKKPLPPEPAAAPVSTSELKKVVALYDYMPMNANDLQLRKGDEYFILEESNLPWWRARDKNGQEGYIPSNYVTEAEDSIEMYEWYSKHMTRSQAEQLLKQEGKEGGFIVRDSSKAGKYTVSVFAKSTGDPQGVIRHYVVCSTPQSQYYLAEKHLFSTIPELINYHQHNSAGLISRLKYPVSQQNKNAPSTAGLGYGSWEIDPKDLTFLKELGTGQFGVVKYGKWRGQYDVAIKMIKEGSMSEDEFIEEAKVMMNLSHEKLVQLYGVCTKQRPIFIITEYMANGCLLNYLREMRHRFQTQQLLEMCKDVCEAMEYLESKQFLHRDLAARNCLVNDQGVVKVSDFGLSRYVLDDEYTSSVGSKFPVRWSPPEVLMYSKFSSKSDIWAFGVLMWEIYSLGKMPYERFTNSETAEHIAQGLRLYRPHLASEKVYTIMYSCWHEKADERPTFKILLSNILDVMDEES
Sequence of EGFR (P00533 25-1210, species assumed): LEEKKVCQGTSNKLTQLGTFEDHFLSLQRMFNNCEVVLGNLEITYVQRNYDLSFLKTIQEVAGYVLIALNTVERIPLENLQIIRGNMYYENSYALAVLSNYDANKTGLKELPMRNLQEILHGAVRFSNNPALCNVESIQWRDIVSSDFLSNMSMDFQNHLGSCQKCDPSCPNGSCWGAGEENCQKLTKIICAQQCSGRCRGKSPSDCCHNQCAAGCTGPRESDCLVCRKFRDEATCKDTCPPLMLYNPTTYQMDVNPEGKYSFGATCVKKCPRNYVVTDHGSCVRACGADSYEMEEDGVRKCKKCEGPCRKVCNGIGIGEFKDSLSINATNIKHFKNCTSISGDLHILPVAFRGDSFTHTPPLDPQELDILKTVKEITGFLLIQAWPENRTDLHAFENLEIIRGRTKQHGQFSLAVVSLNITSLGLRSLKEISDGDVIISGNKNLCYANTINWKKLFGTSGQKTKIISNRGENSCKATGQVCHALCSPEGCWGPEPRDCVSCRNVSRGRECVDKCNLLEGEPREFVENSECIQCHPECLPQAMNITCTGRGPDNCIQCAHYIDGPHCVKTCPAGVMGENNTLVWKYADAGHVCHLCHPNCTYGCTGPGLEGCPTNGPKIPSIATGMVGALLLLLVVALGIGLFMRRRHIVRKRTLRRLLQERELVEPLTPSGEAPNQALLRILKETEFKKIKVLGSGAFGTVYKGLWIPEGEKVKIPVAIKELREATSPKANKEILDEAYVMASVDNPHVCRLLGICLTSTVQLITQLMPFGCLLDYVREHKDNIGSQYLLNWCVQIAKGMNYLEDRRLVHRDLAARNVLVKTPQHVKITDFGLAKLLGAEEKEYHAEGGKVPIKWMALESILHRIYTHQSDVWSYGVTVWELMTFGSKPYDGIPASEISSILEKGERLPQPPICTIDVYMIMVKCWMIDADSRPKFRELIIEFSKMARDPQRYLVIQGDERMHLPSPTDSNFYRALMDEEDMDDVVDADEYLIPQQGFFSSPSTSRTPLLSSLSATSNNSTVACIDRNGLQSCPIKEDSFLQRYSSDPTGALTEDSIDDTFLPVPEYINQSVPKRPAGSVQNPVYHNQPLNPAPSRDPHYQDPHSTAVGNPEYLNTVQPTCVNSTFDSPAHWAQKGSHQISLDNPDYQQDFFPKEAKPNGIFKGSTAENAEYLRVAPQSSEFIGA

On to `CC=C(C#N)C(=O)N1CCC[C@@H](n2nc(-c3ccc(Oc4ccccc4)cc3)c3c(N)ncnc32)C1` [Compound 1], for which the “BTK occupancy 20 hrs post-washout” value on BTK [1] (Ramos B cells, 1 μM, 1 hr, PP-BODIPY) is on record as “negligible”.
Turning to `CC(C)(C)C=C(C#N)C(=O)N1CCC[C@@H](n2nc(-c3ccc(Oc4ccccc4)cc3)c3c(N)ncnc32)C1` [Compound 3, (R)-2-(3-(4-Amino-3-(4-phenoxyphenyl)-1H-pyrazolo[3,4-d]pyrimidin-1-yl)piperidine-1-carbonyl)-4,4-dimethylpent-2-enenitrile], the “Recovery of compound after guanidine-mediated denaturation of BTK” value at BTK [2] was 88 ± 10%. Further, the “Selectivity for BTK over EGFR” value on EGFR is > 1,000 fold. In addition, the “Selectivity for BTK over ITK” value on ITK was found to be 60 fold. Besides, on JAK3, the “Selectivity for BTK over JAK3” value is reported as > 1,000 fold. The Solubility entry in “Aqueous solubility” is reported as “low solubility”. Also, the Oral bioavailability result in “Oral bioavailability” was “poor oral bioavailability”. In addition, at BTK [1] (Ramos, read-out: BTK occupancy 20 hrs post-washout), the receptor occupancy at 1 µM stood at 55%.
As a reminder, the IC50 is the concentration needed to halve the response being measured. As to `CC(C)(C=C(C#N)C(=O)N1CCC[C@H]1Cn1nc(-c2ccc(Oc3ccccc3)cc2F)c2c(N)ncnc21)N1CCOCC1` [Compound 8], the residence time on BTK [3] is 4980 ± 840 min. The IC50 at BTK [4] was 5 to 27 nM.
Consider `C=CC(=O)N1CCC[C@@H]1Cn1nc(-c2ccc(Oc3ccccc3)cc2F)c2c(N)ncnc21` [PP-ir], for which the residence time on BTK [3] is more than 12000 min. Further, at BTK [3] (room temperature), the “BTK residence time τ” value was “no evident dissociation”. Also, on BTK [4], the half-maximal inhibitory concentration (IC50) was 5 to 27 nM.
